Laboratory results taken from patent publication US11535630B2, “Apelin receptor (APJ) agonists and uses thereof” (Research Triangle Institute, priority 2015, dated 2022).
Structures can show the parent of a compound that is named as a salt.

These molecules were tested against T1, apelin receptor (APJ) (Homo sapiens, UniProt P35414) (assay: In vitro apelin agonist activity (methods of Giddings et al., Apelin-13 as positive control)). Conditions: EC50 (nM) Ave, in vitro apelin agonist activity, methods of Giddings et al., Apelin-13 as positive control.
T1 sequence (P35414 1-380): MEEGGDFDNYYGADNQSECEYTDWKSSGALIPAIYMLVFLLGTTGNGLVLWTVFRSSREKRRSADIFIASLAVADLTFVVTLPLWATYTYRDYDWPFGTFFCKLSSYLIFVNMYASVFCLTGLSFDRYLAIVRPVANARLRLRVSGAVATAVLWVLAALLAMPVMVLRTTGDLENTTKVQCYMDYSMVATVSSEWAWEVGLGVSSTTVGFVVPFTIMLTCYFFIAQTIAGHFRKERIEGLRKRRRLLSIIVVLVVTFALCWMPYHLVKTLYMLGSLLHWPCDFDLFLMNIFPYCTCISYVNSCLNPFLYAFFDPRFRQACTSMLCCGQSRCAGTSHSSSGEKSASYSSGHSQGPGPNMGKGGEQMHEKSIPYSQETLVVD
Assay type: cell-based
Text: Characterization of the Apelin Agonist Activity of the Compounds
1:39-47, the contents of which are hereby incorporated by reference in its entirety. Using the methods described in Giddings et al. and Apelin-13 as a positive control.
CN(C[C@@H](CC(=O)NC1CCC1)NC(=O)c1cc(-c2ccccc2C(F)(F)F)n(C2CCCC2)n1)C1CCCCC1 [compound 547] showed an EC50 of 5120 nM.

Same assay, conditions: in vitro apelin agonist activity, methods of Giddings et al., Apelin-13 as positive control; read-out: EC50 (nM) Ave
CCCn1nc(C(=O)N[C@@H](CCN2CCCC(F)(F)C2)CC(=O)O)cc1-c1ccccc1C(F)(F)F [compound 580, (3S)-5-(3,3-difluoropiperidin-1-yl)-3-({1-propyl-5-[2-(trifluoromethyl)phenyl]-1H-pyrazol-3-yl}formamido)pentanoic acid] was tested, and the EC50 was 718 nM.
For O=C(N[C@@H]1CC(=O)N(c2ccc(F)cc2)C1=O)c1cc(-c2ccccc2C(F)(F)F)n(C2CCCC2)n1 [compound 563, 1-cyclopentyl-N-[(3R)-1-(4-fluorophenyl)-2,5-dioxopyrrolidin-3-yl]-5-[2-(trifluoromethyl)phenyl]-1H-pyrazole-3-carboxamide], the EC50 was greater than 10000 nM.
For O=C(C[C@H](CCN1CCCC(F)(F)C1)NC(=O)c1cc(-c2cnccc2Cl)n(C2CCCC2)n1)NC1CCC1 [compound 466, (3S)-3-{[5-(4-chloropyridin-3-yl)-1-cyclopentyl-1H-pyrazol-3-yl]formamido}-N-cyclobutyl-5-(3,3-difluoropiperidin-1-yl)pentanamide], the EC50 was 1220 nM.
CCc1ccccc1-c1cc(C(=O)N[C@@H](CCN2CCC(F)(F)CC2)CC(=O)O)nn1C1CCCC1 [compound 405, (3S)-3-{[1-cyclopentyl-5-(2-ethylphenyl)-1H-pyrazol-3-yl]formamido}-5-(4,4-difluoropiperidin-1-yl)pentanoic acid] was tested, and the EC50 was 227 nM.
O=C(O)C[C@H](CCN1CC[C@@H](F)C1)NC(=O)c1cc(-c2ccccc2C(F)(F)F)n(C2CCCC2)n1 [compound 590, (3S)-3-({1-cyclopentyl-5-[2-(trifluoromethyl)phenyl]-1H-pyrazol-3-yl]formamido)-5-[(3R)-3-fluoropyrrolidin-1-yl]pentanoic acid] was tested, and the EC50 was 1160 nM.
O=C(C[C@H](CCN1CCCCCC1)NC(=O)c1cc(-c2ccccc2C(F)(F)F)n(C2CCCC2)n1)NC1CCC1 [compound 505, (3S)-5-(azepan-1-yl)-N-cyclobutyl-3-({1-cyclopentyl-5-[2(trifluoromethyl)phenyl]-1H-pyrazol-3-yl}formamido)pentanamide] showed an EC50 of 34 nM.
In the case of CCc1ccccc1-c1cc(C(=O)N[C@@H](CCN2CCCCC2)CC(=O)O)nn1C1CCCC1 [compound 403, (3S)-3-{[1-cyclopentyl-5-(2-ethylphenyl)-1H-pyrazol-3-yl]formamido}-5-(piperidin-1-yl)pentanoic acid hydrochloride], the EC50 is reported as 42 nM.
Molecule COCCN(C)C(=O)[C@H](COc1ccccc1)NC(=O)c1cc(-c2ccccc2C(F)(F)F)n(C2CCCC2)n1 [compound 570, (2S)-2-({1-cyclopentyl-5-[2-(trifluoromethyl)phenyl]-1H-pyrazol-3-yl}formamido)-N-(2-methoxyethyl)-N-methyl-3-phenoxypropanamide] has an EC50 of 4250 nM.
Work on C[C@H](C[C@@H](CC(=O)O)NC(=O)c1cc(-c2ccccc2C(F)(F)F)n(C2CCCC2)n1)N1CCCC(F)(F)C1 [compound 575, (3S,5R)-3-({1-cyclopentyl-5-[2-(trifluoromethyl)phenyl]-1H-pyrazol-3-yl}formamido)-5-(3,3-difluoropiperidin-1-yl)hexanoic acid] yielded an EC50 of 91 nM.
O=C(O)C[C@H](CCN1CCC(F)(F)CC1)NC(=O)c1cc(-c2ccccc2C(F)(F)F)n(C2CCCC2)n1 [compound 424, (3S)-3-({1-cyclopentyl-5-[2-(trifluoromethyl)phenyl]-1H-pyrazol-3-yl}formamido)-5-(4,4-difluoropiperidin-1-yl)pentanoic acid] gave an EC50 of 110 nM.
COc1cccc(OC)c1-c1cc(C(=O)N[C@@H](CCNCc2ccncc2)CC(=O)OC(C)(C)C)nn1C1CCCC1 [compound 306, tert-butyl (3S)-3-{[1-cyclopentyl-5-(2,6-dimethoxyphenyl)-1H-pyrazol-3-yl]formamido}-5-[(pyridin-4-ylmethyl)amino]pentanoate] gave an EC50 greater than 10000 nM.
COc1cccc(OC)c1-c1cc(C(=O)N[C@@H](CCCC2CCCCC2)CC(=O)O)nn1CC(C)C [compound 301, (3S)-6-cyclohexyl-3-{[5-(2,6-dimethoxyphenyl)-1-(2-methylpropyl)-1H-pyrazol-3-yl]formamido}hexanoic acid] gave an EC50 of 2590 nM.
COc1cccc(OC)c1-c1cc(C(=O)N[C@@H](CCc2ccccc2)CC(=O)Nc2nnn[nH]2)nn1C1CCCC1 [compound 381, (3S)-3-{[1-cyclopentyl-5-(2,6-dimethoxyphenyl)-1H-pyrazol-3-yl]formamido}-5-phenyl-N-(1H-1,2,3,4-tetrazol-5-yl)pentanamide] gave an EC50 of 647 nM.
Work on O=C(C[C@H](CCN1C2CCCC1CC2)NC(=O)c1cc(-c2ccccc2C(F)(F)F)n(C2CCCC2)n1)NC1CCC1 [compound 498, (3S)-5-{8-azabicyclo[3.2.1]octan-8-yl}-N-cyclobutyl-3-({1-cyclopentyl-5-[2-(trifluoromethyl)phenyl]-1H-pyrazol-3-yl}formamido)pentanamide] yielded an EC50 of 105 nM.
COc1cccc(OC)c1-c1cc(C(=O)N[C@@H](CCN2CCN(C)CC2)CC(=O)OC(C)(C)C)nn1C1CCCC1 [compound 304, tert-butyl (3S)-3-{[1-cyclopentyl-5-(2,6-dimethoxyphenyl)-1H-pyrazol-3-yl]formamido}-5-(4-methylpiperazin-1-yl)pentanoate] gave an EC50 greater than 10000 nM.
Molecule COc1cccc(OC)c1-c1cc(C(=O)N[C@@H](CC2CC2)C(=O)O)nn1C1CCCC1 [compound 385, (2S)-2-{[1-cyclopentyl-5-(2,6-dimethoxyphenyl)-1H-pyrazol-3-yl]formamido}-3-cyclopropylpropanoic acid] has an EC50 greater than 10000 nM.
With O=C(O)C[C@H](CCN1CC(C(F)(F)F)C1)NC(=O)c1cc(-c2ccccc2C(F)(F)F)n(C2CCCC2)n1 [compound 601, (3S)-3-({1-cyclopentyl-5-[2-(trifluoromethyl)phenyl]-1H-pyrazol-3-yl]formamido)-543-(trifluoromethypazetidin-1-yl]pentanoic acid] the EC50 was 128 nM.
O=C(O)C[C@@H](CCN1CCCC(F)(F)C1)NC(=O)c1cc(-c2ccccc2C(F)(F)F)n(C2CCCC2)n1 [compound 579, (3R)-3-({1-cyclopentyl-5-[2-(trifluoromethyl)phenyl]-1H-pyrazol-3-yl}formamido)-5-(3,3-difluoropiperidin-1-yl)pentanoic acid] was tested, and the EC50 was 1870 nM.
For CN(CC[C@@H](CC(=O)NC1CCC1)NC(=O)c1cc(-c2ccccc2C(F)(F)F)n(C2CCCC2)n1)C1CCC1 [compound 506, (3S)-N-cyclobutyl-5-[cyclobutyl(methyl)amino]-3-({1-cyclopentyl-5-[2-(trifluoromethyl)phenyl]-1H-pyrazol-3-yl}formamido)pentanamide], the EC50 was 32 nM.
O=C(N[C@@H](CCN1C(=O)CCCC1=O)Cc1nnn[nH]1)c1cc(-c2ccccc2C(F)(F)F)n(C2CCCC2)n1 [compound 655, 1-cyclopentyl-N-[(2S)-4-(2,6-dioxopiperidin-1-yl)-1-(1H-1,2,3,4-tetrazol-5-yl)butan-2-yl]-5-[2-(trifluoromethyl)phenyl]-1H-pyrazole-3-carboxamide] was tested, and the EC50 was 66 nM.
For O=C(C[C@H](CCc1ccc(F)cc1)NC(=O)c1cc(-c2ccccc2C(F)(F)F)n(C2CCCC2)n1)NN1CCCC1 [compound 510, (3S)-3-({1-cyclopentyl-5-[2-(trifluoromethyl)phenyl]-1H-pyrazol-3-yl}formamido)-5-(4-fluorophenyl)-N-(pyrrolidin-1-yl)pentanamide], the EC50 was 2190 nM.
Molecule COCCN(C)C(=O)C[C@H](CCN1CCCCC1)NC(=O)c1cc(-c2c(OC)cccc2OC)n(C2CCCC2)n1 [compound 334, (3S)-3-{[1-cyclopentyl-5-(2,6-dimethoxyphenyl)-1H-pyrazol-3-yl]formamido}-N-(2-methoxyethyl)-N-methyl-5-(piperidin-1-yl)pentanamide] has an EC50 of 6570 nM.
With O=C(C[C@H](CCN1CCCCC12COC2)NC(=O)c1cc(-c2ccccc2C(F)(F)F)n(C2CCCC2)n1)NC1CCC1 [compound 522] the EC50 was 64 nM.
O=C(O)C[C@H](CCN1CC2CCC(C1)C2(F)F)NC(=O)c1cc(-c2ccccc2C(F)(F)F)n(C2CCCC2)n1 [compound 606, (3S)-3-({1-cyclopentyl-5-[2-(trifluoromethyl)phenyl]-1H-pyrazol-3-yl}formamido)-5-{8,8-difluoro-3-azabicyclo[3.2.1]octan-3-yl}pentanoic acid] gave an EC50 of 310 nM.
For CCCN(CCC)CC[C@@H](CC(=O)NC1CCC1)NC(=O)c1cc(-c2ccccc2C(F)(F)F)n(C2CCCC2)n1 [compound 492, (3S)-N-cyclobutyl-3-({1-cyclopentyl-5-[2-(trifluoromethyl)phenyl]-1H-pyrazol-3-yl}formamido)-5-(dipropylamino)pentanamide], the EC50 was 36 nM.
COc1cccc(OC)c1-c1cc(C(=O)N[C@@H](CCN2CCCCC2)CC(N)=O)nn1C1CCCC1 [compound 352, (3S)-3-{[1-cyclopentyl-5-(2,6-dimethoxyphenyl)-1H-pyrazol-3-yl]formamido}-5-(piperidin-1-yl)pentanamide] was tested, and the EC50 was greater than 10000 nM.
CC1(F)CCN(CC[C@@H](CC(=O)O)NC(=O)c2cc(-c3ccccc3C(F)(F)F)n(C3CCCC3)n2)C1 (stereo partly drawn) [compound 609, (3S)-3-({1-cyclopentyl-5-[2-(trifluoromethyl)phenyl]-1H-pyrazol-3-yl}formamido)-5-(3-fluoro-3-methylpyrrolidin-1-yl)pentanoic acid] gave an EC50 of 98 nM.
